From ChEMBL document CHEMBL1152039, “PIPERIDINE CARBOXYLIC ACID DERIVATIVES AS SIALYL LEWIS X MIMETICS” (Bioorg Med Chem Lett, 1997) come the findings set out here.

Structures are written as SMILES.

Test [1] relates to HL-60. The test can be described thus: Tested for the inhibition of HL60 cell adhesion to recombinant E-selectin-IgG fusion protein measured by cell culture assay. Format: functional, cell-based. The settings on record: Homo sapiens.
Test [2] has as its system Rattus norvegicus. Nature of the test: Tested for the inhibition of leukocyte adhesion in rat mesenteric venules in vivo at a dose of 3 mg/kg measured by intravital microscopy. The test is classed as functional.
Test [3] concerns HL-60. Nature of the test: Tested for the inhibition of HL60 cell adhesion to recombinant P-selectin-IgG fusion protein measured by cell culture assay. Format: functional, cell-based. The settings on record: Homo sapiens.
Test [4] is filed under the species Oryctolagus cuniculus. Nature of the test: Percent incidence of heart arrhythmia and Ventricular fibrillation in isolated rabbit hearts at a concentration of 1 uM. Format: functional.
Test [5] has as its system Rattus norvegicus. Nature of the test: Tested for the inhibition of leukocyte adhesion in rat mesenteric venules in vivo at a dose of 1 mg/kg measured by intravital microscopy. Format: functional.
Test [6] concerns Rattus norvegicus. The test can be described thus: Tested for the inhibition of leukocyte adhesion in rat mesenteric venules in vivo at a dose of 10 mg/kg measured by intravital microscopy. Format: functional.
Test [7] is filed under the species Oryctolagus cuniculus. The test can be described thus: Percent incidence of heart arrhythmia and Ventricular fibrillation in isolated rabbit hearts at a concentration of 3 uM. The test is classed as functional.

As usually defined, the IC50 is the midpoint of a concentration-inhibition curve. In general, inhibition in vivo refers to the drop in the measured response relative to a control, in per cent. Higher therefore signals a strong effect. As to `O=C(O)C1CCN(C(=O)O[C@@H]2CCCC[C@H]2O[C@@H]2O[C@@H](CO)[C@H](O)[C@H](O)[C@H]2O)CC1`, the IC50 with HL-60 [1] is 5 mM; with HL-60 [3], over 10 mM. Moreover, in the test on Rattus norvegicus [2], the inhibition in vivo at 3 mg/kg stood at 38%.

For the compound `O=C(O)C1CCN(C(=O)O[C@@H]2CCCC[C@H]2O[C@H]2O[C@@H](CO)[C@@H](O)[C@H](O)[C@H]2O)CC1`, the 50% inhibitory concentration (IC50) in the test with HL-60 [1] and in the test on HL-60 [3] was over 10 mM each time. Besides, at 3 mg/kg the inhibition in vivo with Rattus norvegicus [2] was 56%.

As to `CC1OC(OC2CCCCC2OC(=O)N2CCC(C(=O)O)CC2)C(O)C(O)C1O` (centres undefined), the IC50 with HL-60 [1] and in the test on HL-60 [3] was over 5 mM each time. The compound also came in with an Incidence in the test filed under Oryctolagus cuniculus [4] of 50%. The compound further yielded an inhibition in vivo at 1 mg/kg in the test with Rattus norvegicus [5] of 64%. In the test on Rattus norvegicus [2], this compound had an inhibition in vivo at 3 mg/kg of 69%. The inhibition in vivo at 10 mg/kg in the test with Rattus norvegicus [6] is 81%.

As to `CC1OC(OC2CCCCC2OC(=O)N2CCC(C(=O)O)(C(=O)O)CC2)C(O)C(O)C1O` (centres undefined), the results for the IC50 in the test on HL-60 [1] and in the test with HL-60 [3] were 1.6 mM and 7.5 mM, respectively. For the same compound, in the test listed under Oryctolagus cuniculus [4], the Incidence turned out to be 50%. The compound also had an inhibition in vivo at 3 mg/kg in the test on Rattus norvegicus [2] of 49%.

With `CC(=O)N[C@H]1[C@H]([C@@H](O)[C@@H](O)CO)O[C@@](O[C@@H]2[C@H](O)[C@H](O[C@H]3[C@H](O[C@@H]4O[C@@H](C)[C@@H](O)[C@H](O)[C@@H]4O)[C@H](NC(C)=O)C(O)O[C@H]3CO)O[C@@H](CO)[C@@H]2O)(C(=O)O)C[C@H]1O` (some centres undefined), the inhibition in vivo at 1 mg/kg with Rattus norvegicus [5] stood at 57%. In the test listed under Oryctolagus cuniculus [7], this compound showed an Incidence of 50%. In the test on Rattus norvegicus [6], this compound had an inhibition in vivo at 10 mg/kg of 63%.
